From patent US11850252B2, “Use of nor-ursodeoxycholic acid for reducing liver fat” (Dr. Falk Pharma GmbH, priority 2017, dated 2023)
“And” between values parts separate entries of the source, which are not always exact repeats. Equal entries are not always repeated.

Assays:
[1] = tested on: Patients with a clinical diagnosis of non-alcoholic hepatic steatosis; test: Liver enzymes (serum ALT, AST, GGT, AP, bilirubin), phase II clinical trial; type: in vivo, human;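 as to Serum bilirubin, Mean ± SD: unit mg/dL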
Experimental: (§1) A double-blinded, randomized, placebo-controlled phase II clinical trial was conducted as described in the following.
(§2) Patients with a clinical diagnosis of non-alcoholic hepatic steatosis were randomized to a 12-week treatment period and a 4-week follow-up. Patients were divided into three groups. The first groups received 1,500 mg Nor-UDCA per day (6 capsules with 250 mg Nor-UDCA in each capsule). The second group received 500 mg Nor-UDCA per day (2 capsules with 250 mg Nor-UDCA in each capsule and 4 capsules with 250 mg placebo in each capsule). The third group received 6 capsules with 250 mg placebo in each capsule.
The effects of Nor-UDCA on liver enzyme values have been assessed with respect to the courses of ALT, AST, GGT, AP and serum bilirubin. In addition, treatment effects with respect to pre-defined outcome criteria based on the upper limits of normal (ULN) of ALT, AST and GGT were examined.
The serum levels of ALT, AST, GGT, AP and serum bilirubin were determined by established standard laboratory methods.

[2] = tested on: Patients with a clinical diagnosis of non-alcoholic hepatic steatosis; test: Hepatic fat fraction measured by MRI and/or MRS, phase II clinical trial; type: in vivo, human
Experimental: as §1, §2
If available, magnetic resonance imaging/spectroscopy (MRI/MRS) examinations were performed at V1 or within 4 weeks before and 1 week after V1 and at V6. Both, MRI and MRS are MR-based methods to separate the liver signal into its water and fat components. The resonance frequencies corresponding to protons in water and to the dominant protons in fat are distinct, and can be quantified directly from the spectral tracing.
The following equation was to be used to calculate the hepatic fat fraction derived from chemical shift imaging (CSI) data: CSI hepatic fat fractionunoorrected=SIin phase−SIopposed phase/2×SIin phase
To account for signal intensity differences not dependent of the fat content, a region of interest was also placed in the spleen in the same image as the liver measurements were performed. To calculate the signal-intensity corrected (using the spleen measurements) hepatic fat fraction, the equation above will be adopted as follows: CSI hepatic fat fractionspleen correction=(SIin phase liver/SIspleen)−(SIopposed phase liver/SIspleen)/2×(SIin phase liver/SIspleen)
If the calculations lead to negative mean hepatic fat fraction values, these negative values were considered as a fat fraction of 0, because a negative value is not possible.
MRS were performed at 1.5 or 3.0 Tesla to determine hepatic triglyceride content (in %).

[3] = N1500 (1,500 mg/day), V2 baseline week 0
[4] = N1500 (1,500 mg/day), V3 week 2
[5] = N1500 (1,500 mg/day), V4 week 4
[6] = N1500 (1,500 mg/day), V5 week 8
[7] = N1500 (1,500 mg/day), V6 (LOCF)
[8] = N1500 (1,500 mg/day), V6 (LOCF)-V2
[9] = N1500 (1,500 mg/day), V6 week 12

**Q.** Which “patients with combined criterion of ALT and/or AST decrease 15%” value ([1]; N1500 (1,500 mg/day)) does the source give for `CC(CC(=O)O)[C@H]1CCC2[C@H]3C(CC[C@@]21C)[C@@]1(C)CCC(O)C[C@H]1C[C@@H]3O` (some centres unmarked) [Nor-UDCA, 24-nor-ursodeoxycholic acid] here?
**A.** The value was 71.6%.

**Q.** And the “proportion of patients fulfilling criterion AST<1.5 ULN” value ([1]; N1500 (1,500 mg/day))?
**A.** Its value is 75.0%.

**Q.** What about the “proportion of patients fulfilling criterion AST<ULN” value ([1]; N1500 (1,500 mg/day)) of the same compound?
**A.** Its value is 54.5%.

**Q.** And the “proportion of patients, criterion GGT ULN” value ([1]; N1500 (1,500 mg/day))?
**A.** The value was 31.0%.

**Q.** And the GGT ([1]; N1500 (1,500 mg/day), V2)?
**A.** Its GGT is 178.8 U/I.

**Q.** And the “ALT, Mean ± SD” value [1, 3]?
**A.** Its value is 78.6 ± 34.2 U/l.

**Q.** And the “ALT/AST, Mean ± SD” value [1, 3]?
**A.** Its value is 1.68 ± 0.53.

**Q.** And the “AP, Mean ± SD” value [1, 3]?
**A.** Its value is 92.0 ± 36.6 U/l.

**Q.** What about the “AST, Mean ± SD” value [1, 3] of the same compound?
**A.** Its value is 49.3 ± 25.1 U/l.

**Q.** And the “GGT, Mean ± SD” value [1, 3]?
**A.** Its value is 178.8 ± 205.6 U/l.

**Q.** And the “Serum bilirubin, Mean ± SD” value [1, 3]?
**A.** The value was 0.61 ± 0.32 mg/dL.

**Q.** What about the “change of AST” value ([1]; N1500 (1,500 mg/day), V2 to V6-LOCF) of the same compound?
**A.** The value was −8.7 U/I.

**Q.** And the “ALT, Mean ± SD” value [1, 4]?
**A.** The value was 72.8 ± 33.1 U/l.

**Q.** And the “ALT/AST, Mean ± SD” value [1, 4]?
**A.** Its value is 1.66 ± 0.41.

**Q.** What about the “AP, Mean ± SD” value [1, 4] of the same compound?
**A.** Its value is 95.4 ± 40.1 U/l.

**Q.** And the “AST, Mean ± SD” value [1, 4]?
**A.** Its value is 43.7 ± 15.7 U/l.

**Q.** What about the “GGT, Mean ± SD” value [1, 4] of the same compound?
**A.** Its value is 170.1 ± 217.9 U/l.

**Q.** And the “Serum bilirubin, Mean ± SD” value [1, 4]?
**A.** The value was 0.52 ± 0.26 mg/dL.

**Q.** And the “ALT, Mean ± SD” value [1, 5]?
**A.** The value was 62.6 ± 24.7 U/l.

**Q.** What about the “ALT/AST, Mean ± SD” value [1, 5] of the same compound?
**A.** The value was 1.53 ± 0.41.

**Q.** And the “AP, Mean ± SD” value [1, 5]?
**A.** Its value is 90.9 ± 32.0 U/l.

**Q.** And the “AST, Mean ± SD” value [1, 5]?
**A.** The value was 42.6 ± 19.9 U/l.

**Q.** What about the “GGT, Mean ± SD” value [1, 5] of the same compound?
**A.** Its value is 128.5 ± 126.1 U/l.

**Q.** And the “Serum bilirubin, Mean ± SD” value [1, 5]?
**A.** Its value is 0.53 ± 0.26 mg/dL.

**Q.** What about the “ALT, Mean ± SD” value [1, 6] of the same compound?
**A.** The value was 62.0 ± 27.9 U/l.

**Q.** And the “ALT/AST, Mean ± SD” value [1, 6]?
**A.** The value was 1.54 ± 0.34.

**Q.** And the “AP, Mean ± SD” value [1, 6]?
**A.** Its value is 91.1 ± 33.3 U/l.

**Q.** And the “AST, Mean ± SD” value [1, 6]?
**A.** The value was 40.5 ± 16.3 U/l.

**Q.** And the “GGT, Mean ± SD” value [1, 6]?
**A.** Its value is 111.5 ± 112.7 U/l.

**Q.** And the “Serum bilirubin, Mean ± SD” value [1, 6]?
**A.** The value was 0.54 ± 0.28 mg/dL.

**Q.** And the “ALT, Mean ± SD” value [1, 7]?
**A.** The value was 61.8 ± 28.3 U/l.

**Q.** And the “ALT/AST, Mean ± SD” value [1, 7]?
**A.** Its value is 1.54 ± 0.34.

**Q.** What about the “AP, Mean ± SD” value [1, 7] of the same compound?
**A.** The value was 91.8 ± 32.1 U/l.

**Q.** What about the “AST, Mean ± SD” value [1, 7] of the same compound?
**A.** Its value is 40.8 ± 19.1 U/l.

**Q.** What about the “GGT, Mean ± SD” value [1, 7] of the same compound?
**A.** Its value is 111.7 ± 116.3 U/l.

**Q.** And the “Serum bilirubin, Mean ± SD” value [1, 7]?
**A.** The value was 0.57 ± 0.31 mg/dL.

**Q.** What about the “ALT change, Mean ± SD” value [1, 8] of the same compound?
**A.** The value was −17.2 ± 23.3 U/l.

**Q.** What about the “ALT/AST ratio change, Mean ± SD” value [1, 8] of the same compound?
**A.** The value was −0.14 and −0.14 ± 0.42.

**Q.** And the “AST change, Mean ± SD” value [1, 8]?
**A.** Its value is −8.7 ± 13.6 U/l.

**Q.** And the “Serum bilirubin change, Mean ± SD” value [1, 8]?
**A.** The value was -0.03 ± 0.20 mg/dL.

**Q.** And the GGT ([1]; N1500 (1,500 mg/day), V6-LOCF)?
**A.** Its GGT is 111.7 U/I.

**Q.** What about the “ALT, Mean ± SD” value [1, 9] of the same compound?
**A.** Its value is 62.8 ± 29.1 U/l.

**Q.** And the “ALT/AST, Mean ± SD” value [1, 9]?
**A.** The value was 1.55 ± 0.34.

**Q.** And the “AP, Mean ± SD” value [1, 9]?
**A.** Its value is 92.9 ± 31.3 U/l.

**Q.** What about the “AST, Mean ± SD” value [1, 9] of the same compound?
**A.** Its value is 41.3 ± 19.8 U/l.

**Q.** What about the “GGT, Mean ± SD” value [1, 9] of the same compound?
**A.** Its value is 109.6 ± 115.8 U/l.

**Q.** What about the “Serum bilirubin, Mean ± SD” value [1, 9] of the same compound?
**A.** The value was 0.56 ± 0.32 mg/dL.

**Q.** What about the “patients fulfilling outcome criterion ALT≤0.8 ULN” value ([1]; N1500 (1,500 mg/day), patients with ALT>0.8 at baseline) of the same compound?
**A.** The value was 17.5%.

**Q.** And the “patients fulfilling outcome criterion ALT<ULN” value ([1]; N1500 (1,500 mg/day), patients with ALT>1.0 at baseline)?
**A.** Its value is 35.7%.

**Q.** And the “patients fulfilling outcome criterion ALT<1.5 ULN” value ([1]; N1500 (1,500 mg/day), patients with ALT>1.5 at baseline)?
**A.** The value was 53.1%.

**Q.** And the “differences in the course of AP and serum bilirubin values between N1500, N500 and Placebo” value ([1]; N1500 and N500 versus Placebo)?
**A.** The value was “no relevant differences”.

**Q.** What about the “Hepatic fat fraction measured by MRI and/or MRS, Mean ± SD” value (“Hepatic fat fraction … Mean ± SD” for short) ([2]; N500 (500 mg Nor-UDCA per day), V1 screening) of the same compound?
**A.** Its value is 14.6 ± 14.5%.

**Q.** What about the “Hepatic fat fraction … Mean ± SD” value ([2]; N500 (500 mg Nor-UDCA per day), V6-LOCF week 12) of the same compound?
**A.** Its value is 15.5 ± 13.5%.

**Q.** What about the “Hepatic fat fraction … Mean ± SD” value ([2]; N1500 (1,500 mg Nor-UDCA per day), V1 screening) of the same compound?
**A.** The value was 21.3% and 21.3 ± 15.4%.

**Q.** And the “Hepatic fat fraction … Mean ± SD” value ([2]; N1500 (1,500 mg Nor-UDCA per day), V6-LOCF week 12)?
**A.** The value was 16.3% and 16.3 ± 14.4%.

**Q.** What about the “decrease in the hepatic fat fraction” value ([2]; group receiving 500 mg) of the same compound?
**A.** The value was “no substantial decrease”.
